According to paper PMC11373624, “Development and preclinical characterization of a novel radiotheranostic EphA2-targeting bicyclic peptide” (Theranostics, 2024):
Numbered stars: 1 amine (or outer) side, 2 acyl side, 3 side chain; on linkers, the order of the positions; unused ones are H or OH. Bridge positions count the residues as written; N and C are the ends. Square brackets hold non-standard residues; d marks the D form. Peptide text beside a SMILES is read from it. * marks the point of attachment. DOTA = O=C(O)CN1CCN(CC(=O)O)CCN(CC(=O)*)CCN(CC(=O)O)CC1; TATA = O=C(CC[*:1])N1CN(C(=O)CC[*:2])CN(C(=O)CC[*:3])C1; d(hArg) = N=C(N)NCCCC[C@@H](N)C(=O)O; dHyp = O=C(O)[C@H]1C[C@H](O)CN1; dCba = N[C@H](CC1CCC1)C(=O)O; βAla = NCCC(=O)O; Sar = CNCC(=O)O

Biological target: T1, Human EphA2 (Homo sapiens, UniProt P29317)
T1 construct: Human EphA2 (residues 27-529) was cloned into pEXPR-IBA44; made in house; host or cells: HEK293 f/s cells
T1 sequence (P29317 27-529): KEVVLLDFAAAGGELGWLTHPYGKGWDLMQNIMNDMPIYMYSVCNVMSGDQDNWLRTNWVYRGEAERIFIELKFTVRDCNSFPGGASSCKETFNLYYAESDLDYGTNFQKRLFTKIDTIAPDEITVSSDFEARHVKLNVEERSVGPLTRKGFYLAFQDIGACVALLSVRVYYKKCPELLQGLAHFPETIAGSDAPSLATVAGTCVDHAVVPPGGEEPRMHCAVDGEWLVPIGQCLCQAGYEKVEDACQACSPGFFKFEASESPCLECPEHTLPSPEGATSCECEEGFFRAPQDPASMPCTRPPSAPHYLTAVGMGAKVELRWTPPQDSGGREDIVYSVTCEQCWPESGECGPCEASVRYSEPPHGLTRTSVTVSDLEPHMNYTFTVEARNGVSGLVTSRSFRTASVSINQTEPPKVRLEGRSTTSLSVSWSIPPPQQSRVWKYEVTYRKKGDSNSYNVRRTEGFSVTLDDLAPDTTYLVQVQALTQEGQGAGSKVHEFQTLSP
Assay: SPR binding to human EphA2
Experimental: Human EphA2 (residues 27-529) was cloned into pEXPR-IBA44 between the 5' NheI and 3' BsaI sites to make constructs expressing a BM40 signal sequence and C-terminal 6xHIS tag. For the expression and purification of the protein, HEK293 f/s cells at 1 x 10^6/mL in freestyle media (Thermo Fisher) were transfected with 1 µg DNA per million cells by PEI either 2:1 or 3:1 PEI:DNA ratio. On day 2 valproic acid was added to a 2.2 mM concentration. The supernatant was harvested 5 days post transfection and loaded on a 1 ml Ni-NTA agarose resin (Thermo Fisher) (wash buffer: 20 mM HEPES pH 7.6, 0.5 M NaCl, 5 mM imidazole, 0.01% Tween-20 buffer; elution buffer: 20 mM HEPES pH 7.6, 0.5 M NaCl, 300 mM imidazole, 0.01% Tween-20). The protein was concentrated to a volume of 2 mL, loaded onto an S-200 Superdex column (GE Healthcare) and eluted with 20 mM HEPES pH 7.6, 150 mM NaCl, 0.01% Tween-20 at a flow rate of 1 mL/min. Fractions were collected and those containing human EphA2 protein were concentrated for further use.
SPR experiments were performed on a Biacore 8K+ (Cytiva Life Sciences, USA) instrument, with methods matched for both human and mouse EphA2 protein. Protein was captured on to a Cytiva NTA sensor chip (Cytiva Life Sciences), via the expressed His-tag; this was followed by primary amine coupling chemistry to covalently immobilize the protein to the chip at 25°C. Initially the surface was injected with 0.5 mM NiCl2 for 2 minutes, followed by activation of the carboxymethyl dextran surface for 7 minutes using an injection of a 1:1 ratio of 0.4 M 1-ethyl-3-(3-dimethylaminopropyl) carbodiimide hydrochloride (EDC)/0.1 M N-hydroxy succinimide (NHS) at a flow rate of 10 µL/min.
Human EphA2 protein was captured to the Ni-NTA surface to a level of 200-300 RU and Mouse EphA2 to 500-800 RU; the residual activated groups were then blocked with a 7 minute injection of 1 M ethanolamine (pH 8.5):HBS-N (1:1). Finally, the Ni-NTA surface was chelated with a 1-minute injection of 350 mM EDTA.
Peptide was prepared in PBS/0.05% Tween 20 with a final DMSO concentration of 0.5%. The top peptide concentration was 100 or 500 nM and 5 further 3-fold dilutions. The peptide was titrated over the chip using single cycle kinetics at 25°C at a flow rate of 75 µL/min with 60 second association and 4000 second dissociation. All data were double referenced for blank injections and reference surface using standard processing procedures. Data was characterized with a 1:1 kinetic binding model to determine kinetic rate constants ka (M^-1s^-1) and kd (s^-1) and equilibrium dissociation constant KD (nM). All data processing was performed using Cytiva Insight Evaluation (Cytiva Life Sciences, USA).

`CC(C)C[C@H]1NC(=O)[C@H]2CCCN2C(=O)[C@@H](CC(N)=O)NC(=O)[C@@H](C(C)C)NC(=O)[C@@H](CC2CCC2)NC(=O)[C@H]2C[C@H](O)CN2C(=O)[C@H](NC(=O)[C@@H](CC(=O)O)NC(=O)[C@@H](CCCCNC(=N)N)NC(=O)[C@@H](C)NC(=O)CN(C)C(=O)CN(C)C(=O)CN(C)C(=O)CN(C)C(=O)CN(C)C(=O)CN(C)C(=O)CN(C)C(=O)CN(C)C(=O)CN(C)C(=O)CN(C)C(=O)CCNC(=O)CN2CCN(CC(=O)O)CCN(CC(=O)O)CCN(CC(=O)O)CC2)CSCCC(=O)N2CN3CN(C2)C(=O)CCSC[C@@H](NC1=O)C(=O)N[C@H](CC(C)C)C(=O)N[C@H](Cc1c[nH]cn1)C(=O)N1CCC[C@@H]1C(=O)N[C@@H](CC(=O)O)C(=O)N[C@H](Cc1c[nH]c2ccccc12)C(=O)N[C@H](CCCCNC(=N)N)C(=O)N[C@@H](C(N)=O)CSCCC3=O` [BCY26443, [DOTA]-[B-Ala]-[Sar10]-[dAla]-[dHArg]-[dAsp]-[dCys]-[dHyP]-[dCba]-[dVal]-[dAsn]-[dPro]-[dLeu]-[dCys]-[dLeu]-[dHis]-[dPro]-Asp-[dTrp]-[dHArg]-[dCys]-CONH2] ({DOTA-βAla}-[Sar][Sar][Sar][Sar][Sar][Sar][Sar][Sar][Sar][Sar][dA][d(hArg)][dD][dC][dHyp][dCba][dV][dN][dP][dL][dC][dL][dH][dP]D[dW][d(hArg)][dC]-NH2; linker 14-21-28 via TATA) was tested, and the Kd (human EphA2, read-out: no binding up to (peptide concentration)) was > 5 µM and the “binding to human EphA2 by SPR” value (in words) was “no binding”.
